| SMILES | melting point |
| --- | --- |
| O=C(O)c1ccc(C=CC(=O)c2ccccc2)cc1 | 222 to 224 °C |
| CCN1CCc2ccc(Nc3ncc(C(F)(F)F)c(Nc4ccc(N5CCOCC5)cc4OC)n3)cc2CC1 | 167 to 170 °C |
| OCc1ccc(/C=C/c2ccncc2)cc1 | 211 to 213 °C |
| N#CCC1CCSc2sccc2C1=O (stereo not given) | 68 to 70 °C |
| COCn1cnc(N2CCc3ccccc3CC2)c(C#N)c1=O | 119 to 124 °C |
| CCCCCCCC(=O)OCC(COC(=O)CCCCCCC)OCn1cnc2c(=O)[nH]c(N)nc21 | 165 to 166 °C |
| CNc1nc2c(N)ncnc2n1C1OC(CO)C(O)C1O (stereo not given) | > 250 °C |
| CCCCNC(=O)Nc1ccc(OC(=O)NCCCC)cc1C(=O)NCC1CCN(C(c2ccccc2)c2ccccc2)CC1 | 197 to 199 °C |
| Cc1ccc2c(c1)C=Cc1nc(C)oc1C2c1cn(Cc2cccc(C(=O)O)c2)c(=O)[nH]c1=S (stereo not given) | 180 °C |
| Cc1c(C(=O)N[C@H](C)[C@](O)(Cn2cncn2)c2ccc(F)cc2F)cnn1-c1ccc(Br)cc1 | 153 to 154 °C |
| O=C(OCc1cc(OCCCBr)c(OCCCBr)c(OCCCBr)c1)c1ccccc1 | 53 to 54 °C |
| COc1ccc(Sc2nccn2C)c([N+](=O)[O-])c1 | 117 to 120 °C |
| COC(=O)Cc1nnc2n1-c1ccc(Cl)cc1C(c1ccccc1)=NC2 | 202 to 204 °C |
| C#CC1(O)C=CC2C3CCC4=CC(=O)CCC4(C)C3CCC21C (stereo not given) | 206 °C |
| O=C1CCC(c2ccccc2)(N2CCOCC2)CC1 | 116 to 119 °C |
| CCCc1nc2c(N)nc3cccnc3c2s1 | 135 to 136 °C |
| COC(=O)c1cccc(CC2COc3ccc(OCc4nc5cc(F)ccc5s4)cc3C2O)c1 (stereo not given) | 171 to 173 °C |
| Cc1nc2c([nH]1)CCCC2=O | 229 °C |
| COC(=O)C(C)=Cc1cc(NC(=S)N2CCCCN2)ccc1Cl | 120 to 121 °C |
| CCCCc1cc2c(N=C3SC[C@@H]4Cc5ccccc5CN34)cccc2cn1 | 82 °C |

| SMILES | melting point |
| --- | --- |
| COc1ccc(N2CCN(c3c(C)c(C)c4c(c3C)C(O)(c3ccc(Cl)cc3)C(C)(C)O4)CC2)cc1 (stereo not given) | 153 to 155 °C |
| CCOc1ccc(C=O)c(Oc2ccc(Cl)cc2Cl)n1 | 95 to 96 °C |
| CSc1nc(N)nc(-c2ccccc2)c1-c1ccc(=O)n(C(C)C)n1 | 221 to 222 °C |
| C[C@@H](S[C@H]1CO[C@H](c2ccc(C(=O)Nc3nccs3)cc2)OC1)[C@](O)(Cn1cncn1)c1ccc(F)cc1F | 108 °C |
| CN1C(=O)C(Cc2c[nH]c3c(Cl)cc(S(C)(=O)=O)cc23)NC1=S (stereo not given) | 242 to 245 °C |
| COC(=O)C1(Sc2cc(N3C(=O)C4=CCCCC4C3=O)c(F)cc2Cl)CCC1 (stereo not given) | 98 °C |
| CCN(CC)c1ccc(-c2cc(-c3ccc(C(=O)O)cc3)ccc2O)cc1C(C)(C)C | 190 °C |
| CC(=NOCCOc1ccc(CC2SC(=O)NC2=O)cc1)c1ccc2ccccc2n1 (stereo not given) | 162 to 163 °C |
| CC(C(=O)O)c1cc(Cl)c(N)cc1Cl (stereo not given) | 140 to 141 °C |
| CN1CCc2cccc3c2C1Cc1ccc(O)c(O)c1-3 (stereo not given) | 158 to 160 °C |
| CC(C)[Si](Oc1ccc2c(c1)CCC2=O)(C(C)C)C(C)C | 63 to 63.5 °C |
| O=C(O)COc1ccc(SCc2ccc(OCc3ccc(CF)cc3)cc2)c2c1CCC2 | 153 to 155 °C |
| O=C(Oc1ccccc1)[C@H]1O[C@@H]1C1CCCCC1 | 59 to 60 °C |
| CCCCCCCCCCCC1Nc2ccccc2-c2c([N+](=O)[O-])cnn21 (stereo not given) | 92 to 93 °C |
| CCCCCc1cc2c(nc(O)n2CC(C)(C)O)c(N)n1 | 240 to 243 °C |
| COC(=O)NC(=N)c1ccc(-n2nc(C)n(-c3ccc(CCC(=O)OCC(C)C)cc3)c2=O)cc1 | 200 to 201 °C |
| COc1cc(/C=C/CNc2cccc(-c3ccnc4c(C(=O)c5cccs5)cnn34)c2)ccc1O | 180 to 184 °C |
| Cc1cc(C)n(Cc2ccc(OCc3nc(-c4ccccc4)oc3C)cc2)n1 | 86 to 87 °C |
| CN(C)C1(c2cccc(F)c2)CCC(c2[nH]c3ccccc3c2CCc2ccncc2)CC1 (stereo not given) | 301 to 314 °C |
| CS(=O)(=O)c1cc2c(c(C(=O)O)c1)OCCO2 | 247 to 249 °C |

| SMILES | melting point |
| --- | --- |
| Clc1ccc(Cc2c(Cl)nc3ncnn3c2Cl)cc1 | 165 to 167 °C |
| COc1cc(OC)nc(Cc2ccccc2[N+](=O)[O-])n1 | 92 to 93 °C |
| COc1ccc2cc([C@H](C)C(=O)OCCOc3ccc(OCCO)cc3)ccc2c1 | 76 to 78 °C |
| Nc1ncnc2c1ncn2Cc1nc2ccc(Br)cc2c(=O)n1-c1ccccc1Cl | 284 to 285 °C |
| C[C@]1(CN2CCN(C(=O)c3ccc(Cl)cc3)CC2)Cn2cc([N+](=O)[O-])nc2O1 | 173 to 174 °C |
| CCOC(=O)c1c(N)sc2c1CCN(CCCc1ccccc1)C2 | 108 to 110 °C |
| Cc1cc(C(=O)O)ccc1C1=CCCCC1C(C)(C)C (stereo not given) | 152 °C |
| CCC1(CC)CN(C2CC3(C)C(CCC4C5CCC(C(C)=O)C5(C)CC(=O)C43)CC2O)CCO1 (stereo not given) | 177 to 179 °C |
| COc1cc2c(cc1O)CCCN(Cc1cc(OC)c(OC)c(OC)c1)C2 | 46 to 48 °C |
| CN(C)CC(c1ccc(OCc2ccccc2)cc1)C1(O)CCCCC1 (stereo not given) | 140 to 142 °C |
| c1ccc(-c2ccc(-c3nc(-c4ccc(-c5ccccc5)cc4)nc(-c4ccc(-c5ccccc5)cc4)n3)cc2)cc1 | 283 °C |
| O=C1CCC(C(=O)N2CCN(CC(=O)N3CCOCC3)CC2)N1 (stereo not given) | 167 to 169 °C |
| Clc1cncc(Cl)c1C1=NC(c2ccc(I)cc2)CO1 (stereo not given) | 90 to 92 °C |
| CN1C(C)(C)CC(O)(CN2C(=O)C3(COc4cc5c(cc43)OCO5)c3ccccc32)CC1(C)C (stereo not given) | 210 to 214 °C |
| Nc1cc2nc(N)c(-c3ccccc3Cl)cc2cn1 | 175 °C |
| O=C(O)CN1C(=O)C(NC(=O)C(Cc2ccccc2)SC(=O)c2ccccc2)CCc2ccccc21 (stereo not given) | 170 to 171 °C |
| CCOc1nn(-c2ccc(C(F)(F)F)cn2)cc1CCCOc1nn(-c2ccccc2)cc1CC(=O)O | 117 to 118 °C |
| C=CCOc1ccc(C(=O)O[C@H]2CC[C@H](C(=O)CCCCCBr)CC2)cc1 | 56 °C |

Other lines, results leading:

| melting point | SMILES |
| --- | --- |
| 223 to 226 °C | Nc1nc(N)c2c(n1)CCC(c1ccccc1)C2 (stereo not given) |
| 233 °C | O=S(CCCCF)CCCCCOc1ccc(C2=C(c3ccccc3)CCCc3cc(O)ccc32)cc1 (stereo not given) |
| 85 to 87 °C | CCCOc1cccc(OCCC)c1C(=O)Nc1cc(C(C)(C)C)no1 |
| 120 to 122 °C | c1cnc2ccc(Cn3nnc4ccc(-c5ccc6[nH]ccc6c5)nc43)cc2c1 |
| 114 to 116 °C | COC(=O)COc1coc2ccccc2c1=O |
| 214 to 217 °C | Cc1cc2c(cc1C(F)(F)F)NC(=O)CC(c1cccc(-c3nc(CO)sc3C)c1)=N2 |
| 204 to 206 °C | COc1ccc(NC(=O)c2ccc(-c3ccc(-c4noc(C)n4)cc3C)cc2)cc1S(=O)CCN(C)C (stereo not given) |
| 210 °C | Cn1c(C(=O)O)c(Br)c2cc(OCc3ccccc3)ccc21 |
| 117 to 118 °C | CCCCC(=O)NC1(c2ccc(C(C)C)cc2OC(=O)CCCC)C(=O)c2ccccc2C1=O |
| 44 to 46 °C | Oc1ccc(Oc2ccc(OC(F)(F)F)cc2)cc1 |
| 47 to 50 °C | CCCCOc1ccccc1-c1nc(Cl)cc(OCCC(C)C)n1 |
| 153 °C | COc1ccc(C(=O)c2c(-c3ccccc3)oc3ccc([N+](=O)[O-])cc23)cc1 |
| 83.5 to 84.5 °C | COc1ccc(N=C(CCc2ccccc2Cl)c2ccccc2)cc1 |
| 39 to 40 °C | CCCCOc1ccc(CCCCCC(=O)O)cc1 |
| 156 to 158 °C | Cc1nc(-n2cnn(Cc3ccc(C(F)(F)F)cc3)c2=O)sc1C(=O)NCc1cccnc1 |
| 77 to 79 °C | ClC(Cl)(Cl)c1nc(-c2ccccc2-c2ccc(CBr)cc2)no1 |
| 215 to 216 °C | Cc1cc(C(=O)O)ccc1C(N)(CC1c2ccccc2Oc2ccccc21)C(=O)O (stereo not given) |
| 179 to 180 °C | O=C(O)c1ccc(OCCCCCCc2cccc(O)c2O)cc1O |
| 66 to 68 °C | Cc1sc(CO)cc1CC#N |
| 94 to 95 °C | COc1ccc(C=C(Br)Br)cc1O |
| 158 to 159 °C | O=c1ccn2c3ccccc3c3cc(Cl)cc1c32 |

| melting point | SMILES |
| --- | --- |
| 92 to 93 °C | CN(C)C1CCN(C2c3ccccc3Oc3ccccc32)CC1 |
| 95 to 96 °C | CC1(C)OC(C=CC=Cc2ccc(Cl)cc2)=CC1=O |
| 123 to 124 °C | CCN(CC)CCOc1ccc(Nc2ncc3c(n2)N(C)C(=O)N(c2c(Cl)cccc2Cl)C3)cc1 |
| 106 to 107 °C | CC(C)(C)OC(=O)NCCOc1noc2ccccc12 |
| 294 °C | O=C(O)c1cc2cc([N+](=O)[O-])cc(O)c2o1 |
| 81 to 82 °C | CN(C)c1ncc(Br)cn1 |
| 111 to 112 °C | Cc1cc(NC(=O)CCCCCBr)ccc1O |
| 290 °C | O=C(O)c1cn(C2CC2)c2cc(N3CC4CC4C3)c(F)cc2c1=O (stereo not given) |
| 168 °C | O=C(O)COc1ccc(SCc2ccc(OCc3ccc(Cl)c(Cl)c3)cc2)c2c1CCC2 |
| 119 to 120 °C | Fc1ccc(CN2CCc3cc(OC[C@H]4CO[C@](Cn5ccnc5)(c5ccc(Cl)cc5Cl)O4)ccc3C2)cc1 (racemic) |
| 216 to 218 °C | COc1cc2c(cc1F)CCN(Nc1ccncc1)C2 |
| 159 °C | CNC(=O)NCCN1CCC(=C2c3sccc3CCn3ccnc32)CC1 |
| 167 to 168 °C | COc1cc(OC)c(-c2cccs2)cc1/C=C/C(=O)c1ccc(S(=O)(=O)NCC(F)(F)F)cc1 |
| 144 °C | CCCN(C)S(=O)(=O)c1cccc(-c2cc(-c3nc(-c4ccc(C(F)(F)F)cc4)cc(C(F)(F)F)n3)ccn2)c1 |
| 89 to 91 °C | CNS(=O)(=O)Oc1ccc2c(c1)C(C)(C)C(OC)O2 (stereo not given) |
| 338 to 339 °C | O=c1[nH]c(Nc2ccccc2)nc2c1ncn2CCO |
| 220 to 221 °C | CC(CCNC1=Nc2cccc3cccc1c23)c1ccncc1 (stereo not given) |
| 235 to 237 °C | Cc1nc2n(c(=O)c1C(N)=O)C(C)CCC2=NNc1ccccc1 (stereo not given) |
| 126 °C | Nc1nc(Nc2ccccc2)c2[nH]cnc2n1 |
| 123 °C | CCCCc1ncc(CCNC(CCc2ccccc2)C(=O)O)n1Cc1ccccc1Cl (stereo not given) |
| 125 °C | CCC(=O)Nc1ccnn1-c1c(Cl)cc(Cl)cc1Cl |

Source: a melting point compilation (Tetko et al.; mined from patent text by program, amines drawn as free bases though some values may be those of a salt)
